Experimental data as given in patent publication US10233191B2, “Fused piperidine amides as modulators of ion channels” (Vertex Pharmaceuticals Incorporated, priority 2013, dated 2019).
pIC50: −log10 of the molar value.

These compounds were tested against T1, NaV 1.7 (Homo sapiens, UniProt Q15858) (assay: E-VIPR optical membrane potential assay with electrical stimulation). Conditions: active against one or more sodium channels; assay/subtype not specified in Table 4; read-out: IC50 Binned Activity Data.
T1 construct: expressed in transfected cells; host or cells: HEK cells
T1 sequence (Q15858 whole entry): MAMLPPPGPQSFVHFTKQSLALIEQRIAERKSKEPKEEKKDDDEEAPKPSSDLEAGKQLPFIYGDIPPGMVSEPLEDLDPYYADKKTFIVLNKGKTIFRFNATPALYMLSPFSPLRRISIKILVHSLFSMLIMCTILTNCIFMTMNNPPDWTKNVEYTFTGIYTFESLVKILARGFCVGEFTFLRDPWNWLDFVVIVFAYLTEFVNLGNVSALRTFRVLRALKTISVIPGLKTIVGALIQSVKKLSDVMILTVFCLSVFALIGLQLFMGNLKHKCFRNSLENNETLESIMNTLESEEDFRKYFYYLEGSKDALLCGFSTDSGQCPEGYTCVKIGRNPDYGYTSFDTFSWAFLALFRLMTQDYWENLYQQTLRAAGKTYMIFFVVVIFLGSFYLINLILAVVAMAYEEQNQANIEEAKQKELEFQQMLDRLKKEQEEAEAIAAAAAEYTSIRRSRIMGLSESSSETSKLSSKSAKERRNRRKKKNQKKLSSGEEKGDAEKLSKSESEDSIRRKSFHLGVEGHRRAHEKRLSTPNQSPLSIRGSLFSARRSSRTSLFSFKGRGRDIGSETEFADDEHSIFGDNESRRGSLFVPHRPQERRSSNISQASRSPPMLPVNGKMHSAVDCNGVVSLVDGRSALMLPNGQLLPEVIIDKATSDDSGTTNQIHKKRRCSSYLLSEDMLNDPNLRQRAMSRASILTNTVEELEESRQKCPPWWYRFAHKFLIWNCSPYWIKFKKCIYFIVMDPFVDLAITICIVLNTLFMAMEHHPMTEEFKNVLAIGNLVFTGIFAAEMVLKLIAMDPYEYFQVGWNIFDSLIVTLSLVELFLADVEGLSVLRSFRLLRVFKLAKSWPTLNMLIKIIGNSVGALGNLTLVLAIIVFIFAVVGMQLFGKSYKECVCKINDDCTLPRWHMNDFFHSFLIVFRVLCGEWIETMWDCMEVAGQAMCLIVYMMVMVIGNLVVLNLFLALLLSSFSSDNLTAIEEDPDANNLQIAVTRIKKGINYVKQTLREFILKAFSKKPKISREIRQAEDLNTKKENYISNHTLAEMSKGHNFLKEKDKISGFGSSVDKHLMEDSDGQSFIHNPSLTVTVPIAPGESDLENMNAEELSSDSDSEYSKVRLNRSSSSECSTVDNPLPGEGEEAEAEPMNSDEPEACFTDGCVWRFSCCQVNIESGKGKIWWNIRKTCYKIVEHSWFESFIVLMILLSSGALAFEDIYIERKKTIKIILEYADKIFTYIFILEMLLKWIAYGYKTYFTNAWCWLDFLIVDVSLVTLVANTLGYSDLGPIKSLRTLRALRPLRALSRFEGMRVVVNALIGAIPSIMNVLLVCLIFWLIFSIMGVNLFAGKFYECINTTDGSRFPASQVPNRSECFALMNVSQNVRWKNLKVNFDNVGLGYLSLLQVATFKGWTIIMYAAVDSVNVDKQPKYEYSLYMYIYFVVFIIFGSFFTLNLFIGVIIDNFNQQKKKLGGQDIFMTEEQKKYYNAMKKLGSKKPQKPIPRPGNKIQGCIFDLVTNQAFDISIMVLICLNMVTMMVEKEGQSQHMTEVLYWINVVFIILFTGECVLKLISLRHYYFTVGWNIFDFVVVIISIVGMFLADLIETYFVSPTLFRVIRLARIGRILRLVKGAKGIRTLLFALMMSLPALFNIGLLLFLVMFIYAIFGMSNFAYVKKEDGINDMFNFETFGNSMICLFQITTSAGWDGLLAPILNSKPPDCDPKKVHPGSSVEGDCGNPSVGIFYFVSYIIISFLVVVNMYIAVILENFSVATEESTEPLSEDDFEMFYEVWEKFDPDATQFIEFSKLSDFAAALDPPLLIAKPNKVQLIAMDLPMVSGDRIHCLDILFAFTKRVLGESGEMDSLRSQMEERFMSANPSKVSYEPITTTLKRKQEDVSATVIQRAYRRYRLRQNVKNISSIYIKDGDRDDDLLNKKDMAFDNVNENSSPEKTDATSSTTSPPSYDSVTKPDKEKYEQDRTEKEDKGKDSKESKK
Format: cell-based
How it was run: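 HEK cells expressing human NaV1.7, loaded with CC2-DMPE/DiSBAC6(3) FRET dyes, then exposed to compounds for 20-35 min at room temperature (0.625% DMSO). Electrical stimulation applied for 9 s with 400 Hz scanning. Read-out is the background-subtracted 460/580 nm emission ratio, normalized.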
`O=C(c1ccc(OCCOC(F)(F)F)c(Cl)c1)N1CC[C@@]2(c3ccccn3)COC2C1` (stereo partly drawn) [Compound 116] showed a pIC50 of at least 5.70.
Compound `COc1cc(C(=O)N2CC[C@]3(c4cc(F)cc(F)c4)OCOC3C2)ccc1OCC1CC(F)(F)C1` (stereo partly drawn) [Compound 225] has a pIC50 of at least 5.70.
For `COc1cc(C(=O)N2CCC3(c4ccc(F)cc4)CC3C2)ccc1OCCOC(F)(F)F` (stereo not drawn) [Compound 300], the pIC50 was at least 5.70.
Work on `Cc1cc(C(=O)N2CC[C@]3(c4ncccc4F)OCOC3C2)ccc1OCC(C)(C)F` (stereo partly drawn) [Compound 100] yielded a pIC50 of at least 5.70.
`Cc1nc(C(=O)N2CCC3(c4ccccc4)CC3C2)ccc1OCCOC(F)(F)F` (stereo not drawn) [Compound 191] was tested, and the pIC50 was at least 5.70.
For `COc1cc(C(=O)N2CC[C@@]3(c4cccc(F)c4)OCOC3C2)ccc1OC(C)C(F)(F)F` (stereo partly drawn) [Compound 212], the pIC50 was 5.30 to 5.70.
In the case of `[2H]C1([2H])OC2CN(C(=O)c3ccc(OCCOC(F)(F)F)c(OC)n3)CC[C@]2(c2cc(F)cc(F)c2)O1` (stereo partly drawn) [Compound 309], the pIC50 was at least 5.70.
`COc1cc(C(=O)N2CC[C@]3(c4cc(F)ccc4F)OCOC3C2)ccc1OCCC(F)(F)F` (stereo partly drawn) [Compound 287] gave a pIC50 of at least 5.70.
`COc1cc(C(=O)N2CC[C@]3(c4cccc(C(F)(F)F)n4)OCOC3C2)ccc1OCCC(F)(F)F` (stereo partly drawn) [Compound 274] showed a pIC50 of at least 5.70.
With `Cc1cc(C(=O)N2CC[C@]3(c4ncccc4Cl)OCOC3C2)ccc1OCC(C)(C)F` (stereo partly drawn) [Compound 152] the pIC50 was at least 5.70.
`COc1nc(C(=O)N2CC[C@]3(c4cccc(F)c4)OCOC3C2)ccc1O[C@H]1CC2[C@H](C1)C2(F)F` (stereo partly drawn) [Compound 229] gave a pIC50 of at least 5.70.
In the case of `COc1cc(C(=O)N2CC[C@]3(c4ccccn4)C(=O)OCC3C2)ccc1OCCOC(F)(F)F` (stereo partly drawn) [Compound 277], the pIC50 was at least 5.70.
Compound `COc1cc(C(=O)N2CC[C@@]3(c4ccccc4)OCOC3C2)ccc1OCC(C)(C)O` (stereo partly drawn) [Compound 8] has a pIC50 of under 5.30.
Work on `COc1cc(C(=O)N2CC[C@@]3(c4ccccn4)COCC3C2)ccc1OCCOC(F)(F)F` (stereo partly drawn) [Compound 278] yielded a pIC50 of at least 5.70.
Compound `COc1cc(C(=O)N2CCC3(c4ccccc4)CC3C2)ccc1OCCC(C)C` (stereo not drawn) [Compound 151] has a pIC50 of at least 5.70.
In the case of `COc1cc(C(=O)N2CC[C@]3(c4cccc(Cl)c4)OCOC3C2)ccc1O[C@@H](C)C(F)(F)F` (stereo partly drawn) [Compound 244], the pIC50 was at least 5.70.
`[2H]C1([2H])OC2CN(C(=O)c3ccc(OCCOC(F)(F)F)c(OC)c3)CC[C@]2(c2cc(F)cc(F)c2)O1` (stereo partly drawn) [Compound 174] showed a pIC50 of at least 5.70.
Work on `CC(COc1ccc(C(=O)N2CC[C@]3(c4ccccn4)OCOC3C2)cc1Cl)CC(F)(F)F` (stereo partly drawn) [Compound 164] yielded a pIC50 of at least 5.70.
For `COc1nc(C(=O)N2CC[C@]3(c4cccc(F)c4F)OCOC3C2)ccc1OC(C)C(F)(F)F` (stereo partly drawn) [Compound 263], the pIC50 was at least 5.70.
In the case of `COc1cc(C(=O)N2CC[C@]3(c4cccc(F)c4)OCOC3C2)ccc1NCC1CC(F)(F)C1` (stereo partly drawn) [Compound 211], the pIC50 was at least 5.70.
Compound `COc1cc(C(=O)N2CCC3(c4ccc(F)cc4)CC3C2)ccc1OC(C)C(F)(F)F` (stereo not drawn) [Compound 297] has a pIC50 of under 5.30.
`CC(C)(F)COc1ccc(C(=O)N2CC[C@]3(c4ccccn4)OCOC3C2)cc1Cl` (stereo partly drawn) [Compound 110] gave a pIC50 of at least 5.70.
In the case of `COc1cc(C(=O)N2CC[C@]3(c4cccc(F)c4)OCOC3C2)ccc1OCC1CC(F)(F)C1` (stereo partly drawn) [Compound 193], the pIC50 was at least 5.70.
`CCOc1nc(C(=O)N2CC[C@]3(c4csc(C)n4)OCOC3C2)ccc1OCCOC(F)(F)F` (stereo partly drawn) [Compound 103] was tested, and the pIC50 was at least 5.70.
For `[2H]C1([2H])OC2CN(C(=O)c3ccc(OC(C)C(F)(F)F)c(OC)c3)CC[C@]2(c2cc(F)cc(F)c2)O1` (stereo partly drawn) [Compound 173], the pIC50 was at least 5.70.
Work on `CCOc1nc(C(=O)N2CC[C@]3(c4nccs4)OCOC3C2)ccc1OCCOC(F)(F)F` (stereo partly drawn) [Compound 118] yielded a pIC50 of at least 5.70.
With `COc1cc(C(=O)N2CC[C@]3(c4cc(F)ccc4F)OCOC3C2)ccc1OCC1CC(F)(F)C1` (stereo partly drawn) [Compound 288] the pIC50 was at least 5.70.
Work on `CC(C)(C)COc1ccc(C(=O)N2CC[C@]3(c4ccccn4)OCOC3C2)cc1Cl` (stereo partly drawn) [Compound 121] yielded a pIC50 of at least 5.70.
`COc1cc(C(=O)N2CC[C@]3(c4ccccn4)OCOC3C2)ccc1OC(C)CC(F)(F)F` (stereo partly drawn) [Compound 61] was tested, and the pIC50 was at least 5.70.
`COc1cc(C(=O)N2CC[C@]3(c4cccc(F)c4F)OCOC3C2)ccc1OC(C)C(F)(F)F` (stereo partly drawn) [Compound 187] was tested, and the pIC50 was at least 5.70.
`COc1cc(C(=O)N2CC[C@]3(c4ncccc4F)OCOC3C2)ccc1OCC1CC(F)(F)C1` (stereo partly drawn) [Compound 1] gave a pIC50 of at least 5.70.
`Cc1cc(C(=O)N2CC[C@]3(c4ccc(F)cc4)OCOC3C2)ccc1OCC(C)(C)F` (stereo partly drawn) [Compound 124] was tested, and the pIC50 was at least 5.70.
With `CC(C)(C)OCCOc1ccc(C(=O)N2CC[C@]3(c4ncccc4OCCOC(C)(C)C)OCOC3C2)cc1Cl` (stereo partly drawn) [Compound 87] the pIC50 was at least 5.70.
